Data as given in ChEMBL document CHEMBL1201862, “PubChem BioAssay data set” (2004).
The source made the active and inactive calls.

Assays:
[1] = target: T1, Low molecular weight phosphotyrosine protein phosphatase (Homo sapiens, UniProt P24666); assay type: functional; details: read-out: IC50_Mean
T1 sequence (P24666 whole entry): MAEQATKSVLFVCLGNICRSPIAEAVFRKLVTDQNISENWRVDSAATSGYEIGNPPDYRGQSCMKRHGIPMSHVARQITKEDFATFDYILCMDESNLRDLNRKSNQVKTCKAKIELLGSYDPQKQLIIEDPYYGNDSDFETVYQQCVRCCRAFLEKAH

[2] = target: T2, Tyrosine-protein phosphatase non-receptor type 22 (Homo sapiens, UniProt Q9Y2R2); assay: PTPN22 enzyme inhibitors – biochemical, fluorescence, LYP catalytic domain, selectivity assay for LMPTP inhibitor project, dose response (AID 652006); assay type: functional; details: read-out: IC50_Mean
T2 sequence (Q9Y2R2 whole entry): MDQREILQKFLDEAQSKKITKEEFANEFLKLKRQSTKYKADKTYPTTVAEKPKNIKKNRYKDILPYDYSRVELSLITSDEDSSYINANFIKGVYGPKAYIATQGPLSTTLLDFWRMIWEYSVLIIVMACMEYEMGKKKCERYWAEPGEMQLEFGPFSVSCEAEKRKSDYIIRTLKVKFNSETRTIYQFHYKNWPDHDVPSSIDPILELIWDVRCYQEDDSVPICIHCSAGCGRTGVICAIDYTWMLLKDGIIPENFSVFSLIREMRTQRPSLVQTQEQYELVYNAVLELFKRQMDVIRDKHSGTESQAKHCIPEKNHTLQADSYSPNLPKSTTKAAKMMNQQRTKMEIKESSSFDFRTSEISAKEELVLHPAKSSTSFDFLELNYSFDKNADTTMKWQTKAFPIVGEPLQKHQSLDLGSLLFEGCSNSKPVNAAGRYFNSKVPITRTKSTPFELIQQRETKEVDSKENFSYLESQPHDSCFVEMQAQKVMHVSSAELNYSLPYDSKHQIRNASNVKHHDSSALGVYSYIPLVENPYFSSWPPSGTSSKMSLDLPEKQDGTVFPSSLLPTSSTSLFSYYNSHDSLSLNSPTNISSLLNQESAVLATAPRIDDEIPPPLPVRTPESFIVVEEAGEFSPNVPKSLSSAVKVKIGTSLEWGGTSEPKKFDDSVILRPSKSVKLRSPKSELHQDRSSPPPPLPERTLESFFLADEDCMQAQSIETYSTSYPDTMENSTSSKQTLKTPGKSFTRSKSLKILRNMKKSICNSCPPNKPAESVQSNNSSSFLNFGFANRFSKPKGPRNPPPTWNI

[3] = target: T3, Carboxy-terminal domain RNA polymerase II polypeptide A small phosphatase 1 (Homo sapiens, UniProt Q9GZU7); assay: CTDSP1 inhibitors, concentration-response, biochemical, absorbance readout, ultra-high-throughput screen actives (AID 540297); assay type: functional
T3 sequence (Q9GZU7 whole entry): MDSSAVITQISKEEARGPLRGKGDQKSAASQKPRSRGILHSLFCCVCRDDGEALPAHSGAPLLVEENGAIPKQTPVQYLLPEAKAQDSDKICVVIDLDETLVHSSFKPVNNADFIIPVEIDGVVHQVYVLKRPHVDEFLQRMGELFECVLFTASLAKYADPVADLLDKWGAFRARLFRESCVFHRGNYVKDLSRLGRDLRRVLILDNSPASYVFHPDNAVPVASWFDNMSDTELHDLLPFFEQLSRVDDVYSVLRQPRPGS

[4] = target: T1, Low molecular weight phosphotyrosine protein phosphatase; assay type: functional; details: read-out: IC50_Mean; remark: listed apart in the source
Beta-lactamase [5] = target: T4, Beta-lactamase (Pseudomonas aeruginosa, UniProt Q79MP6); assay: inhibition of IMP-1 beta-lactamase activity – biochemical, epi-absorbance, selectivity assay for VIM-2 inhibitor project, dose response (AID 1920)
Beta-lactamase [6] = target: T4, Beta-lactamase; assay: […] counterscreen for selective VIM-2 inhibitors: dose response biochemical high throughput screening assay to identify inhibitors of IMP-1 metallo-beta-lactamase.
Beta-lactamase [7] = target: Beta-lactamase (Salmonella choleraesuis (strain SC-B67), UniProt Q5J463); assay: Epi-absorbance-based counterscreen for selective VIM-2 inhibitors: dose response biochemical high throughput screening assay to identify inhibitors of TEM-1 serine-beta-lactamase.
[8] = target: Arf-GAP with SH3 domain, ANK repeat and PH domain-containing protein 1 (Homo sapiens, UniProt Q9ULH1); assay type: functional;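 note: biochemical fluorescence polarization dose–response screen measuring inhibition of ASAP1; ASAP1 GAP domain stimulating GTP hydrolysis by truncated human ARF1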
[9] = target: Broad substrate specificity ATP-binding cassette transporter ABCG2 (Homo sapiens, UniProt Q9UNQ0); assay: blockers of JC-1 export by ABCG2 – Ig-MXP3 cells, flow cytometry, dose response (AID 1690); assay type: functional
[10] = target: ATP-dependent translocase ABCB1 (Homo sapiens, UniProt P08183); assay: inhibition of P-gp mediated JC-1 efflux – Jurkat-DNR cells, flow cytometry, dose response (AID 1689); assay type: functional
HEK293 = assay: EBV LMP1 TES2 canonical NF-kB signalling blockers – cell-based, HEK293, luciferase, cherry-pick, dose response (AID 588343); assay type: functional, Homo sapiens; details: Homo sapiens, HEK293
Interleukin-8 [11] = target: T5, Interleukin-8 (Homo sapiens, UniProt P10145); assay: Dose Response confirmation of uHTS small molecule hits for cystic fibrosis induced NFkb Inhibitors in a TNFa-induced IL8 counterscreen.; assay type: functional; details: read-out: IC50_Mean
T5 sequence (P10145 whole entry): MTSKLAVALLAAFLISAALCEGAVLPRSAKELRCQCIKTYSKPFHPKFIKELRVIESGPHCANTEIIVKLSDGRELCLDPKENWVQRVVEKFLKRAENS

Interleukin-8 [12] = target: T5, Interleukin-8; assay: Dose Response confirmation of uHTS small molecule hits for cystic fibrosis induced NFkb Inhibitors in a PAF-induced IL8 counterscreen.; assay type: functional; details: read-out: IC50_Mean
[13] = target: Tyrosine-protein phosphatase non-receptor type 11 (Homo sapiens, UniProt Q06124); assay: PTPN11 enzyme inhibitors – biochemical, selectivity assay for STEP inhibitor project, dose response (AID 602367); assay type: functional; details: read-out: IC50_Mean
[14] = target: Dual specificity protein phosphatase 3 (Homo sapiens, UniProt P51452); assay: VHR phosphatase inhibition, dose response, selectivity assay for STEP inhibitor project, biochemical (AID 602374); assay type: functional; details: read-out: IC50_Mean
[15] = target: Tyrosine-protein phosphatase non-receptor type 5 (Homo sapiens, UniProt P54829); assay: PTPN5 enzyme inhibition – biochemical, fluorescence intensity, uHTS hits, confirmation (AID 602372); assay type: functional; details: read-out: IC50_Mean
Sequence of Tyrosine-protein phosphatase non-receptor type 5 (P54829 whole entry): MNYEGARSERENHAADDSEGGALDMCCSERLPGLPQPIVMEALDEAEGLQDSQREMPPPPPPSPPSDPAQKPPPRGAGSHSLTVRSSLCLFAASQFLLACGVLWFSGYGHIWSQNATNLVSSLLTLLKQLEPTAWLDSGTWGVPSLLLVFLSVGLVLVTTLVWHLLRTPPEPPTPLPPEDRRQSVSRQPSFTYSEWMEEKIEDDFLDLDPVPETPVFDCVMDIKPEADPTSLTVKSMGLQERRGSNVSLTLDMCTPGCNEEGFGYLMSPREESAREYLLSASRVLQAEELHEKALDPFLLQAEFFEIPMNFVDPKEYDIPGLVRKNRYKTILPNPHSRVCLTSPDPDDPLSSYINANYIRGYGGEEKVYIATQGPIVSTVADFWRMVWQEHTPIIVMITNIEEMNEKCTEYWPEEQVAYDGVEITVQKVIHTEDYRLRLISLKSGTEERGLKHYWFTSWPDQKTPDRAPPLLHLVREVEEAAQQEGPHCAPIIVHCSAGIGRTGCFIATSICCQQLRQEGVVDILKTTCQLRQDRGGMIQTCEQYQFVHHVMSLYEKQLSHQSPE

T4 sequence (Q79MP6 whole entry): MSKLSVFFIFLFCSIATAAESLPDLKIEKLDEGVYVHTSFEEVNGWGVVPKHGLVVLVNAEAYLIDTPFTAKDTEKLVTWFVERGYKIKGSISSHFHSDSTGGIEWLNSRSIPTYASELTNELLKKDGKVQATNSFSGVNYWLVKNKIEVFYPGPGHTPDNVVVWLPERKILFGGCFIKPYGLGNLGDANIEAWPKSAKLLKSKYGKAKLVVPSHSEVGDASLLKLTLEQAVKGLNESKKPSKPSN
Sequence of ATP-dependent translocase ABCB1 (P08183 whole entry): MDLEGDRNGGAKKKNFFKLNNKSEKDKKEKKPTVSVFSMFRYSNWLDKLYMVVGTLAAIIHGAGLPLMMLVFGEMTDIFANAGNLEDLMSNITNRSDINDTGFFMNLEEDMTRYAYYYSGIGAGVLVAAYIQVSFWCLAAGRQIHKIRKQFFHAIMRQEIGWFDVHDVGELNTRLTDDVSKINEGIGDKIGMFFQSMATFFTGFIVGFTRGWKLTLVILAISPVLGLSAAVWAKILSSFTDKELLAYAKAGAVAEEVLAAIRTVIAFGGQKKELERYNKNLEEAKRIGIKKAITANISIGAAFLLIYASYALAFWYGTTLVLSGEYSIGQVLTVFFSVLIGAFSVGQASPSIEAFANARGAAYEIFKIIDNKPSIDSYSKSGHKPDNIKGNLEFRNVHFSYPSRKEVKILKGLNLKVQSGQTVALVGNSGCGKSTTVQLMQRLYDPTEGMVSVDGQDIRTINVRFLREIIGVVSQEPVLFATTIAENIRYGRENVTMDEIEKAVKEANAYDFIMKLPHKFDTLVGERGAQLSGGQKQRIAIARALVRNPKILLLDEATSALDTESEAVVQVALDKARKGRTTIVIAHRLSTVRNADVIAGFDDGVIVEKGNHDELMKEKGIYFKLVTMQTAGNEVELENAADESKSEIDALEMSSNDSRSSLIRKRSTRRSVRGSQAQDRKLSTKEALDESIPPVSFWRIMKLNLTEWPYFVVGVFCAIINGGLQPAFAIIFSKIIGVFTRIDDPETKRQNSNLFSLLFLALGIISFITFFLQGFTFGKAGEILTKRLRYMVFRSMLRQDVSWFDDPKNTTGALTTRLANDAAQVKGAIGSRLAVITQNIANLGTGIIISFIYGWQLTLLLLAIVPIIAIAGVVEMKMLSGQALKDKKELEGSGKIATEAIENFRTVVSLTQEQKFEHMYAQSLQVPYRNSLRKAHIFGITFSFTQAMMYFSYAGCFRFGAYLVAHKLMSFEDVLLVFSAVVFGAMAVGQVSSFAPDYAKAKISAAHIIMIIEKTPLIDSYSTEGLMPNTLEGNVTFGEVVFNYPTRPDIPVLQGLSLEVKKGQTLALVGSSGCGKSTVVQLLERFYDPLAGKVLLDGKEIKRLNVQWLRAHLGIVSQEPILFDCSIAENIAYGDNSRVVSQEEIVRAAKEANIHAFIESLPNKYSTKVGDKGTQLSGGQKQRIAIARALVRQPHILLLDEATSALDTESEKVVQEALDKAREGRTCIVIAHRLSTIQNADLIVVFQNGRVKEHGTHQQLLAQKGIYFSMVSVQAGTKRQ
Sequence of Broad substrate specificity ATP-binding cassette transporter ABCG2 (Q9UNQ0 whole entry): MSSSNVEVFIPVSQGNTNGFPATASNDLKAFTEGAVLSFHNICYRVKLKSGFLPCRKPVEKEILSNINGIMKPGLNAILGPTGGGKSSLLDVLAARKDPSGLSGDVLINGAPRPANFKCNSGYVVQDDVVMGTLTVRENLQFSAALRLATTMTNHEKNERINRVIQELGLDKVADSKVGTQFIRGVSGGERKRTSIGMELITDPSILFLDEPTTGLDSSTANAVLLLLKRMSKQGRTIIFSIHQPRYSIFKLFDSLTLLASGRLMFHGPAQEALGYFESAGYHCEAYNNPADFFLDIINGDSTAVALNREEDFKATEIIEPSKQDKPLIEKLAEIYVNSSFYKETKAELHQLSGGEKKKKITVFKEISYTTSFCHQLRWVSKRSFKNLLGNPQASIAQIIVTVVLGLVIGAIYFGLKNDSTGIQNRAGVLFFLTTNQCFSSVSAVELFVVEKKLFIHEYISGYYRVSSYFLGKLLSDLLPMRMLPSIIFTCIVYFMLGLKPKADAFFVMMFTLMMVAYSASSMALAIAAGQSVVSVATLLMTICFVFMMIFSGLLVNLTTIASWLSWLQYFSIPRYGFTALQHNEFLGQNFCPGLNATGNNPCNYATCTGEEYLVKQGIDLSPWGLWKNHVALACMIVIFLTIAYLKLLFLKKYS
Sequence of Arf-GAP with SH3 domain, ANK repeat and PH domain-containing protein 1 (Q9ULH1 whole entry, the tested form may be a part): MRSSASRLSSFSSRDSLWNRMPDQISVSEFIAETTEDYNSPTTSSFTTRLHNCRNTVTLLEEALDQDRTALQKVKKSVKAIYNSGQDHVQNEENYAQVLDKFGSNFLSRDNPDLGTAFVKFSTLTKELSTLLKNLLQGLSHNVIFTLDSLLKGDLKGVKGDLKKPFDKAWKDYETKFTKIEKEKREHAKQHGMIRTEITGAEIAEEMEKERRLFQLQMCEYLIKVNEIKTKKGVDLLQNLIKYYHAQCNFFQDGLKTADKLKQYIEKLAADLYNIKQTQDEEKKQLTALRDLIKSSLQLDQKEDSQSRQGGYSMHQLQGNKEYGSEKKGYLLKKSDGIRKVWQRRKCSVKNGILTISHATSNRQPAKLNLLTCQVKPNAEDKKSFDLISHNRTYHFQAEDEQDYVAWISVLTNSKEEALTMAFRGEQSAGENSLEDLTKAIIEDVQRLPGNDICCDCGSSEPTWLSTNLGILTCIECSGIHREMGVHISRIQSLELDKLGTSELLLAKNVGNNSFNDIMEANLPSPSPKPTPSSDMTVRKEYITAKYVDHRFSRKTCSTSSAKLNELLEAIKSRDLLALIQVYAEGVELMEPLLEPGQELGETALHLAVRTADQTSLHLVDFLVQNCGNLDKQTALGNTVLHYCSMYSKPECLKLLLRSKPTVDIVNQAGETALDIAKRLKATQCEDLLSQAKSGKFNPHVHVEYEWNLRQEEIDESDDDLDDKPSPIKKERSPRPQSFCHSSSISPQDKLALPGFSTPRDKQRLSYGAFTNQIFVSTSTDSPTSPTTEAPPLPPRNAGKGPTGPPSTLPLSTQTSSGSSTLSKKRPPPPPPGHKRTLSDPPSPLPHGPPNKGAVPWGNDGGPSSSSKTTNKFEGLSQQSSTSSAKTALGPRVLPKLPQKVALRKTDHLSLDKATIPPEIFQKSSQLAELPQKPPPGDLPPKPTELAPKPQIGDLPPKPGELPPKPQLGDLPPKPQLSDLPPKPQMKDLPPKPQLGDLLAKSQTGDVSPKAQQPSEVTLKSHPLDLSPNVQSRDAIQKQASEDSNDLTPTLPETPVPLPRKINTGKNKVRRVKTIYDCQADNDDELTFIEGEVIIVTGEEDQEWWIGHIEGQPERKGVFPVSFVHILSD
Sequence of Beta-lactamase (Salmonella choleraesuis (strain SC-B67), UniProt Q5J463) (Q5J463 whole entry, the tested form may be a part): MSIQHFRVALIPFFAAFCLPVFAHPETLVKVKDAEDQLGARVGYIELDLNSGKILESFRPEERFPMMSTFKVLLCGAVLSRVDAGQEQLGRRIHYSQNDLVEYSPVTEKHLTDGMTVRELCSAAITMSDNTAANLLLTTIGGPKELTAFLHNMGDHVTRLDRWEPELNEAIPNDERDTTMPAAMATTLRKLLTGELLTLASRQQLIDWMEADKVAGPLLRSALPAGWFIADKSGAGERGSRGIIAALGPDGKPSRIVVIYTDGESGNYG
Sequence of Dual specificity protein phosphatase 3 (P51452 whole entry): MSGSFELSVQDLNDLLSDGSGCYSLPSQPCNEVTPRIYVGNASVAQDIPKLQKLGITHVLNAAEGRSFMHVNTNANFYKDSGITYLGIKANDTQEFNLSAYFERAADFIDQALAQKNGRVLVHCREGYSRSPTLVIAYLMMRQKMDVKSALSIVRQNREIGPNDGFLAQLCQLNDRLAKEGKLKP
Sequence of Tyrosine-protein phosphatase non-receptor type 11 (Q06124 whole entry): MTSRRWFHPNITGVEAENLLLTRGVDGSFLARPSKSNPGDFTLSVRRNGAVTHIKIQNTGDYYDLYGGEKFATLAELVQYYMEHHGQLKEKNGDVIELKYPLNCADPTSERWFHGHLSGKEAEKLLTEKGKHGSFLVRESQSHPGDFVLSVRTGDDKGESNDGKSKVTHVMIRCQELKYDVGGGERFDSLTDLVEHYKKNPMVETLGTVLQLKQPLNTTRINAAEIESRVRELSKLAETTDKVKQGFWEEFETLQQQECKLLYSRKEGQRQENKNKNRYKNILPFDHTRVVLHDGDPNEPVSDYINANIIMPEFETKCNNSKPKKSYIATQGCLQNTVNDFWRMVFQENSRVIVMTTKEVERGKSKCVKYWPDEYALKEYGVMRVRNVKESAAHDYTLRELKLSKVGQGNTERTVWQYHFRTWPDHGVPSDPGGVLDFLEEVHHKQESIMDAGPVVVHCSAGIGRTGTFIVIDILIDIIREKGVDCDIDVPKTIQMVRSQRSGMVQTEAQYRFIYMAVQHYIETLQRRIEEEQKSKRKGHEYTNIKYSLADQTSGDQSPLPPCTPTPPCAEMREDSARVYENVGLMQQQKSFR

With Cc1cc2oc(=O)cc(-c3cc4ccccc4o3)c2cc1O the IC50 [1] was 21.5 µM (inactive), the IC50 [2] was 29.1 µM (inactive) and the IC50 [3] was 3.8 µM (active). For the same molecule, the IC50 [4] was 20.7 µM (inactive).
In the case of S=c1[nH]nc(-c2cccs2)n1Cc1ccccc1, the IC50 (Beta-lactamase [5]) is reported as > 59.6 µM (inactive), the IC50 (Beta-lactamase [6]) is reported as > 59.6 µM (inactive) and the IC50 (Beta-lactamase [7]) is reported as > 59.6 µM (inactive).
For CC(=O)c1cccc(NC(=O)CSc2ccc(-c3ccc4c(c3)OCO4)nn2)c1, the IC50 [8] was 33.9 µM (inactive).
For CCOC(=O)c1cccc(NC(=O)c2cnc3ccccc3n2)c1, the EC50 [9] was 11.8 µM (active) and the EC50 [10] was 30.7 µM (inactive).
With COc1ccccc1[C@]1(C)ON(c2ccccc2C(F)(F)F)C1=O the AC50 (HEK293) was 7.34 µM (active), the IC50 (Interleukin-8 [11]) was 24.3 µM (active) and the IC50 (Interleukin-8 [12]) was 8 µM (active).
In the case of NS(=O)(=O)c1ccccc1, the IC50 [13] is reported as 8.42 µM (active), the IC50 [14] is reported as 1.5 µM (active) and the IC50 [15] is reported as 28.6 µM (inactive).
